The text below walks through data of patent US20260174875A1 (Novo Nordisk A/S, priority 2023, published 2026).

Like-named read-outs stand apart in the source and are kept apart here.

In general, EC50 refers to the concentration needed to bring the measured effect to its halfway point.

Series [1] concerns the target T1, human GLP-1 receptor (hGLP-1R) (Homo sapiens, UniProt P43220).
T1 construct: expressed in transfected cells
The experiment in a line: GLP-1 receptor assay, method B (CRE-luciferase reporter, BHK cells, 384-well). Type of series: cell-based. In general terms: In a reporter assay the amount or activity of a reporter protein is the signal.
Experimental: (§1) To assess how the activation of the receptors is potentially influenced by the presence of human serum albumin (HSA), the in vitro assays were performed in the absence of HSA and presence of 1% (w/v) HSA.
Cells at approximately 80-90% confluence were washed once in PBS (Gibco 14190-094) and loosened from the cell flasks with Versene (Gibco, 15040-033). […] Cells were aliquoted and stored at −180° C. until use.
(§2) The assay buffer consisted of DMEM without phenol red (Gibco, 11880-028) supplemented with 1× GlutaMAX (Gibco, 35050-038), 10 mM HEPES (Gibco, 15630-056), 1% (w/v) ovalbumin (Sigma, A5503) and 0.1% (v/v) Pluronic F-68 (Gibco, 24040-032) either with HSA or without HSA (Sigma, A9511).
Serial dilutions were transferred to a 384-well assay plate (PerkinElmer/Revvity, 6007688) and mixed with an equal volume (10 μL) of assay buffer without or with 3% (w/v) HSA (Sigma, A-9511). Frozen stocks of hGLP-1R BHK Cre-Luc cells were thawed in a 37° C. water bath, washed once in PBS (Gibco 14190-094), diluted to 1.5×10^5 (1.5E+5) cells/mL in assay buffer (without HSA) and added (10 μL) to each well of the 384-well assay plate. After a short centrifugation, the assay plates were incubated for 3 hours at 37° C. in 5% CO2 and let to equilibrated at room temperature for 10 minutes before the addition of 30 μL steadylite Plus™ PerkinElmer/Revvity, 6066759) per well. Plates were sealed and incubated at room temperature with gentle shaking for 30 minutes while protected from light. Luminescence was detected on a luminescence plate reader e.g. a Synergy 2 (BioTek).

Series [2] can be described thus: Chemical stability assessment in formulation (UPLC-UV-MS purity loss at 37° C.). Type of series: physicochemical. The conditions noted are these: 8 mM phosphate buffer pH 7.4, 1 mg/mL, 2 weeks. The gist of the method:
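Peptides at target 1 mg/mL in 8 mM phosphate buffer, pH adjusted to 7.4, incubated in capped vials at 37° C. and sampled over 2 weeks, frozen until analysis. Purity followed by UPLC-UV-MS with a 0.1% formic acid water/acetonitrile gradient.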

In series [3] the target is T2, human GIP receptor (hGIPR) (Homo sapiens, UniProt P48546).
T2 construct: expressed in transfected cells
T2 sequence (P48546 22-466): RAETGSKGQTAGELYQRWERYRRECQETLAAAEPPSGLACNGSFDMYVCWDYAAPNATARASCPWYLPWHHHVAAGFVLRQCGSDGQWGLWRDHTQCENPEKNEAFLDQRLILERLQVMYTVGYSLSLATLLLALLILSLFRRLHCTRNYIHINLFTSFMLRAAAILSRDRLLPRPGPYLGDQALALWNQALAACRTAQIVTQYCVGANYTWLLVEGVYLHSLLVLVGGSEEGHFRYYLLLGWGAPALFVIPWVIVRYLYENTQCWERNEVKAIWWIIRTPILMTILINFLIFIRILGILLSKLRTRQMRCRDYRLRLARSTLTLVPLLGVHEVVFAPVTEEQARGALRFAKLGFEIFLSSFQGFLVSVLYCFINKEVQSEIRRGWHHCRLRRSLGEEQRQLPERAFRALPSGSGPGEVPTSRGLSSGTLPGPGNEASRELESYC
In words: GIP receptor assay, method B (CRE-luciferase reporter, BHK cells, 384-well). Type of series: cell-based.
Experimental: as §1
Activation of the human GIP receptor leads to increased intra-cellular concentrations of cyclic AMP (cAMP) and the consequent transcription activation from promoters containing multiple copies of the cAMP response element (CRE). It is thus possible to measure GIP receptor activity using a CRE-luciferase reporter gene introduced into Baby Hamster Kidney (BHK) cells co-expressing the human GIP receptor.
Cells at about 80-90% confluency were washed once with PBS (Gibco 14190-094) and detached from the cell flasks with Versene (Gibco, 15040-066). After centrifugation, the cells were counted, resuspended and diluted to approximately 1.5-3.0×10^6 (1.5E+6 to 3.0E+6) cells/mL in Recovery Cell Culture Freezing Medium (Gibco, 12648-010) and stored at −180° C. in suitable aliquots until use.
as §2
Serial dilutions were transferred to a 384-well assay plate (PerkinElmer/Revvity, 6007688) and mixed with an equal volume (10 μL) of assay buffer without or with 3% HSA (Sigma, A-9511). Frozen stocks of hGIPR BHK Cre-Luc cells were thawed in a 37° C. water bath, washed once in PBS (Gibco 14190-094), diluted to 1.5×10^5 (1.5E+5) cells/mL in assay buffer (without HSA) and added (10 μL) to each well of the 384-well assay plate. After a short centrifugation, the assay plates were incubated for 3 hours at 37° C. in 5% CO2 and let to equilibrated at room temperature for 10 minutes before the addition of 30 μL steadylite Plus™ (PerkinElmer/Revvity, 6066759) per well. Plates were sealed and incubated at room temperature with gentle shaking for 30 minutes while protected from light. Luminescence was detected on a luminescence plate reader e.g. a Synergy 2 (BioTek).

For series [4], the target named is T3, human amylin receptor (hAMYR3) (Homo sapiens, UniProt O60896+P30988).
T3 construct: host or cells: BHK cells (Hollex-1 line expressing hCTR(a) and CRE-Luc), further transfected with human RAMP3
T3 sequence (P30988 25-474): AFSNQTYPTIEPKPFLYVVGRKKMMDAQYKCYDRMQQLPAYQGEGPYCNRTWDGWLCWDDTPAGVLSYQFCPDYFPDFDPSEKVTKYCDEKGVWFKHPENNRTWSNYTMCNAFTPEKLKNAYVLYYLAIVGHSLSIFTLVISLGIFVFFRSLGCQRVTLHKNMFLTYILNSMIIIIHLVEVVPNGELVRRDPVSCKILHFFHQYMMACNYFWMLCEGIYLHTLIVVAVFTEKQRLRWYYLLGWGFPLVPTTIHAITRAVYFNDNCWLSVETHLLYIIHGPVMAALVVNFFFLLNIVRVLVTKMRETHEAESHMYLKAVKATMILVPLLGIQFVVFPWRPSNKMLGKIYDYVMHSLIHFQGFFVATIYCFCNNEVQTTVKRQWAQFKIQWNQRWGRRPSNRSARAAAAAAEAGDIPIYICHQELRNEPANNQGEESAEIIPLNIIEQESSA
T3 sequence (O60896 24-148): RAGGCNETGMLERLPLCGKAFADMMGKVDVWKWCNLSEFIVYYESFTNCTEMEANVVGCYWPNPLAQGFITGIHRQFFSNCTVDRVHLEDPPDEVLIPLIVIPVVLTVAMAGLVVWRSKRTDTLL
In words: Amylin receptor assay, method B (CRE-luciferase reporter, BHK cells). Format: cell-based. The gist of the method: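 BHK cells with CRE-luciferase, co-expressing hAMYR3 and transfected with human RAMP3, seeded overnight, then exposed 3 h at 37 °C to compound. Buffer: phenol red-free DMEM, 10 mM HEPES, 1% ovalbumin, with 0% or 1% (w/v) HSA. Luminescence read after 30 min with steadylite Plus.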

The subject of series [5] is Male Sprague Dawley (SD) rats. The experiment in a line: Efficacy testing on appetite: acute food intake in ad libitum fed normal weight rats. The conditions noted are these: single dose 10 nmol/kg. Type of series: in vivo, rat. An excerpt:
Male Sprague Dawley (SD) rats from Taconic, Denmark were used for the acute food intake experiments, wherein the principles of laboratory animal care were followed.
The rats arrived at least 10-14 days before the start of the experiment to allow acclimatization to experimental settings. During this period, the animals were handled (fixation by restrain in neck skin) at least 2 times. Immediately upon arrival, rats were changed to a reversed light cycle (dark from 11 am-11 pm) and were transferred to an automated food intake measuring system (HM2 system, MBRose; Faaborg, Denmark). […] To enable recording of individual food intake, rats were ID chipped. Three rats were housed in each cage. During the acclimatization period, in which the rats get used to the new light cycle and diet (LF 10% (D12450B), from Research Diets Inc.), the animals had free access to food and water. Since rats are normally active and consume most of their daily calories during the dark period, rats were dosed in the morning right before lights were turned off. Such a set-up results in the lowest data variation and highest test sensitivity. […] In each cage there were animals from three different treatment groups (to eliminate potential cage effects (e.g. cage malfunction) on primary readout: food intake). The rats were dosed once subcutaneously (s.c.) with the peptide of interest according to body weight (10 or 30 nmol/kg) in vehicle (0.5 ml/kg) using a NovoPen® (Novo Nordisk, Bagsvæed, Denmark).
The compounds of the invention were formulated (20 or 60 nmol/ml) in the following vehicle: 8 mM phosphate; 250 mM glycerol; 0.007% polysorbate 20, pH 7.4.
After dosing, the rats were returned to their home cages, where they continued to have ad libitum access to chow and water. The food consumption was recorded individually and continuously by the HM2 system from 0-72 h after test compound administration. Data obtained by the HM-2 system were stored in a HMBase SQL database (Firebird® relational database management system) and were processed by HM2Lab software (MBRose; Faaborg, Denmark) installed in an embedded computer. The feeding system is a highly sensitive system with a load resolution of 0.001 g.

[6] abbreviates: hGLP-1R Potency, 1% HSA, EC50, methods B, in the presence of 1% HSA.
[7] abbreviates: method B, absence of HSA, read-out: hGLP-1R Potency, no HSA, EC50.
The mark [8] stands for this setting: hGIPR Potency, 1% HSA, EC50, methods B, in the presence of 1% HSA.
Where [9] appears, read: method B, absence of HSA, read-out: hGIPR Potency, no HSA, EC50.
The mark [10] stands for this setting: hAMYR3 Potency, 1% HSA, EC50, methods B, in the presence of 1% HSA.
Setting [11] is: method B, absence of HSA, read-out: hAMYR3 Potency, no HSA, EC50.

T1 sequence (P43220 24-463): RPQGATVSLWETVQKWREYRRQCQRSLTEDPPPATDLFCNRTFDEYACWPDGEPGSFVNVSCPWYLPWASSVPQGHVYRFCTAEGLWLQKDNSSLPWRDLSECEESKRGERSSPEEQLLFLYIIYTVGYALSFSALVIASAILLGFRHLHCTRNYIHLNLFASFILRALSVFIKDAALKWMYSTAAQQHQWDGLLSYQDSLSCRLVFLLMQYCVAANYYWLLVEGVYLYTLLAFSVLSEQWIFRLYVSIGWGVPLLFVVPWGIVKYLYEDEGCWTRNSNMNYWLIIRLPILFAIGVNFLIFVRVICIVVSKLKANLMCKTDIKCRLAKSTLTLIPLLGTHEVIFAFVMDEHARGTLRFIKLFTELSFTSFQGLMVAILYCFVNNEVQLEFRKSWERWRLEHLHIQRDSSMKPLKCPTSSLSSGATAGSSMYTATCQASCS

Consider `CC[C@H](C)[C@H](NC(=O)[C@H](CCC(=O)O)NC(=O)[C@H](CCC(=O)O)NC(=O)[C@H](CC(C)C)NC(=O)[C@H](CC(C)C)NC(=O)[C@@H](NC(=O)[C@H](CO)NC(=O)[C@H](Cc1ccc(O)cc1)NC(=O)[C@H](CC(=O)O)NC(=O)[C@H](CO)NC(=O)[C@@H](NC(=O)[C@H](Cc1ccccc1)NC(=O)[C@@H](NC(=O)CNC(=O)[C@H](CCC(=O)O)NC(=O)C(C)(C)NC(=O)[C@@H](N)Cc1ccc(O)cc1)[C@@H](C)O)[C@@H](C)O)[C@@H](C)CC)C(=O)N[C@@H](C)C(=O)N[C@@H](C)C(=O)N[C@@H](CCCNC(=N)N)C(=O)N[C@@H](CCC(=O)O)C(=O)N[C@@H](Cc1ccccc1)C(=O)N[C@H](C(=O)N[C@@H](CCC(=O)O)C(=O)N[C@@H](Cc1c[nH]c2ccccc12)C(=O)N[C@@H](CC(C)C)C(=O)N[C@@H](CC(C)C)C(=O)N[C@@H](C)C(=O)NCC(=O)NCC(=O)N1CCC[C@H]1C(=O)N[C@@H](CO)C(=O)N[C@@H](CO)C(=O)N[C@@H](CCC(=O)O)C(=O)N[C@@H](C)C(=O)NCC(=O)N[C@@H](CCC(N)=O)C(=O)N[C@@H](C)C(=O)N1CCC[C@H]1C(=O)NCC(=O)N[C@@H](CCC(N)=O)C(=O)N[C@@H](C)C(=O)N1CCC[C@H]1C(=O)NCC(=O)N[C@@H](C)C(=O)N[C@@H](CO)C(=O)N[C@@H](Cc1c[nH]cn1)C(=O)N[C@@H](CC(C)C)C(=O)N[C@@H](CO)C(=O)N[C@H](C(=O)N[C@@H](C)C(=O)N[C@@H](CCC(N)=O)C(=O)N[C@H](C(=O)N[C@@H](CCC(N)=O)C(=O)N[C@@H](CCCNC(=N)N)C(=O)N[C@@H](CC(C)C)C(=O)N[C@@H](CO)C(=O)N[C@@H](C)C(=O)N[C@@H](CCC(=O)O)C(=O)N[C@@H](CC(C)C)C(=O)N[C@@H](Cc1c[nH]cn1)C(=O)N[C@@H](CCCCNC(=O)COCCOCCNC(=O)COCCOCCNC(=O)CC[C@H](NC(=O)CCCCCCCCCCCCCCCCCCC(=O)O)C(=O)O)C(=O)N[C@@H](CC(C)C)C(=O)N[C@@H](C)C(=O)N[C@H](C(=O)N[C@@H](CCC(=O)O)C(=O)N1CCC[C@H]1C(=O)N[C@@H](CCCNC(=N)N)C(=O)N[C@H](C(=O)N[C@@H](CCC(=O)O)C(=O)N[C@H](C(=O)NCC(=O)N[C@@H](CO)C(=O)NCC(=O)N[C@@H](CO)C(=O)N1CCC[C@H]1C(N)=O)[C@@H](C)O)[C@@H](C)O)[C@@H](C)O)[C@@H](C)O)[C@@H](C)O)[C@@H](C)CC` [Compound 165], for which the EC50 in series [1] (setting [6]) worked out at 0.0888 nM; in series [1] (setting [7]), 0.0251 nM; in series [3] (setting [8]), 0.00764 nM; in series [3] (setting [9]), 0.00239 nM; in series [4] (setting [10]) it was 0.537 nM; in series [4] (setting [11]), 0.0094 nM. For the same compound, in series [2], the “Purity loss per week at 37° C.” value is on record as 1.0%.

`CC[C@H](C)[C@H](NC(=O)[C@H](CCC(=O)O)NC(=O)[C@H](CCC(=O)O)NC(=O)[C@H](CC(C)C)NC(=O)[C@H](CC(C)C)NC(=O)[C@@H](NC(=O)[C@H](CO)NC(=O)[C@H](Cc1ccc(O)cc1)NC(=O)[C@H](CC(=O)O)NC(=O)[C@H](CO)NC(=O)[C@@H](NC(=O)[C@H](Cc1ccccc1)NC(=O)[C@@H](NC(=O)CNC(=O)[C@H](CCC(=O)O)NC(=O)C(C)(C)NC(=O)[C@@H](N)Cc1ccc(O)cc1)[C@@H](C)O)[C@@H](C)O)[C@@H](C)CC)C(=O)N[C@@H](C)C(=O)N[C@@H](C)C(=O)N[C@@H](CCCNC(=N)N)C(=O)N[C@@H](CCC(=O)O)C(=O)N[C@@H](Cc1ccccc1)C(=O)N[C@H](C(=O)N[C@@H](CCC(=O)O)C(=O)N[C@@H](Cc1c[nH]c2ccccc12)C(=O)N[C@@H](CC(C)C)C(=O)N[C@@H](CC(C)C)C(=O)N[C@@H](C)C(=O)NCC(=O)NCC(=O)N1CCC[C@H]1C(=O)N[C@@H](CO)C(=O)N[C@@H](CO)C(=O)NCC(=O)N[C@@H](C)C(=O)NCC(=O)N[C@@H](C)C(=O)N[C@@H](CO)C(=O)N[C@@H](CCC(=O)O)C(=O)N[C@@H](CC(C)C)C(=O)N[C@@H](CO)C(=O)N[C@H](C(=O)N[C@@H](C)C(=O)N[C@@H](CCC(N)=O)C(=O)N[C@H](C(=O)N[C@@H](CCC(N)=O)C(=O)N[C@@H](CCCNC(=N)N)C(=O)N[C@@H](CC(C)C)C(=O)N[C@@H](CO)C(=O)N[C@@H](C)C(=O)N[C@@H](CCC(=O)O)C(=O)N[C@@H](CC(C)C)C(=O)N[C@@H](Cc1c[nH]cn1)C(=O)N[C@@H](CCCCNC(=O)COCCOCCNC(=O)COCCOCCNC(=O)CC[C@H](NC(=O)CCCCCCCCCCCCCCCCCCC(=O)O)C(=O)O)C(=O)N[C@@H](CC(C)C)C(=O)N[C@@H](C)C(=O)N[C@H](C(=O)N[C@@H](CC(C)C)C(=O)N1CCC[C@H]1C(=O)N[C@@H](CCCNC(=N)N)C(=O)N[C@H](C(=O)N[C@@H](CCC(=O)O)C(=O)N[C@H](C(=O)NCC(=O)N[C@@H](CO)C(=O)NCC(=O)N[C@@H](CO)C(=O)N1CCC[C@H]1C(N)=O)[C@@H](C)O)[C@@H](C)O)[C@@H](C)O)[C@@H](C)O)[C@@H](C)O)[C@@H](C)CC` [Compound 176]: the EC50 was found to be 0.178 nM in series [1] (setting [6]); 0.0299 nM in series [1] (setting [7]); 0.0238 nM in series [3] (setting [8]); 0.00366 nM in series [3] (setting [9]); 0.798 nM in series [4] (setting [10]); 0.0112 nM in series [4] (setting [11]). Besides, the “Food intake (relative to vehicle) Day 1” value in series [5] (day 1 [0-24 hours]) was −12%. Also, the “Food intake (relative to vehicle) Day 2” value in series [5] (day 2 [24-48 hours]) stood at 2%. Further, the “Food intake (relative to vehicle) Day 3” value in series [5] (day 3 [48-72 hours]) worked out at 7%.
